Results published in ChEMBL document CHEMBL1156829 (Proc Natl Acad Sci U S A, 2008).

Tests used:
[1] = test system: Plasmodium falciparum; assay: NOVARTIS: Inhibition of Plasmodium falciparum 3D7 (drug-susceptible) proliferation in erythrocyte-based infection assay; assay type: functional, organism-based; conditions: Plasmodium falciparum, 3D7
[2] = test system: Plasmodium falciparum; assay: NOVARTIS: Inhibition of Plasmodium falciparum W2 (drug-resistant) proliferation in erythrocyte-based infection assay; assay type: functional, organism-based; conditions: Plasmodium falciparum, W2; read-out: EC50
[3] = NOVARTIS: Cytotoxicity against human hepatocellular carcinoma cell line (Huh7); assay type: toxicity, cell-based, Huh-7; conditions: Huh7 cells (hepatocellular carcinoma cell line)

Compound | EC50 [1] | EC50 [2] | CC50 [3]
NCCCCCCNc1ccnc2cc(Cl)ccc12 | 0.288 µM | 0.132 µM | > 10 µM
OCCNc1nc(Nc2ccccc2)nc2ccccc12 | 0.167 µM | 0.626 µM | 47.5 µM
CCOC(=O)C1=C(C)N=c2sc(=Cc3cc(Cl)ccc3O)c(=O)n2C1c1ccc2c(c1)OCO2 (stereo not drawn) | 4.93 µM | 1.31 µM | > 100 µM
CN1CCN(CCCNc2ccnc3cc4ccccc4cc23)CC1 | 0.0241 µM | 0.0785 µM | 5.93 µM
COc1cc2c(cc1C=C(C#N)c1cccc(C)c1)OCO2 | > 9.74 µM | 1.31 µM | > 100 µM
O=C(c1cccs1)N1CCN(c2ccc([N+](=O)[O-])c(NC3CC3)c2)CC1 | 2.09 µM | 1.37 µM | > 100 µM
CCN1CCN(c2cc(C)c3cc(NC(=O)c4cccc([N+](=O)[O-])c4)ccc3n2)CC1 | 0.096 µM | 0.267 µM | 20.3 µM
Cc1ccc(NC(=O)c2ccc(NCCCN3CC(C)CC(C)C3)c([N+](=O)[O-])c2)cc1F (stereo not drawn) | 0.219 µM | 0.736 µM | > 53.6 µM
COc1ccc(C(NC(=O)c2cccc(OC)c2)c2cc(Cl)c3cccnc3c2O)cc1 (stereo not drawn) | 0.983 µM | 1.38 µM | > 100 µM
O=C(Nc1ccccc1F)NC1CC2CCCC(C1)N2CCc1ccccc1 (stereo not drawn) | 0.44 µM | 0.14 µM | > 10.6 µM
COc1cc2nc(NCCN3CCOCC3)n3nc(-c4ccccc4)nc3c2cc1OC | 0.114 µM | 0.134 µM | > 10 µM
C=CCC(=O)NC1CCN(CC(O)CN(Cc2ccccc2)S(=O)(=O)c2ccccc2)C1 (stereo not drawn) | 0.257 µM | 1.33 µM | > 100 µM
CCCN(CCC)CCCNc1ccc(C(=O)Nc2cccc(OC)c2)cc1[N+](=O)[O-] | 0.159 µM | 0.32 µM | 24 µM
COc1ccc(C=C2N=C(c3ccc(Cl)cc3)N(c3cc(Cl)ccc3C)C2=O)cc1OC | 3.48 µM | 1.31 µM | > 100 µM
O=C(O)CS(=O)(=O)c1ccc(C(=O)NCC(c2cccnc2)N2CCOCC2)cn1 (stereo not drawn) | > 0.876 µM | 0.131 µM | > 10 µM
O=C(O)CCCNC(=O)C(O)(c1ccccc1)c1ccccc1 | > 12.5 µM | 1.33 µM | > 100 µM
COc1ccc(CCNC(=O)CN(c2ccc(OC)c(OC)c2)S(=O)(=O)c2ccc(C)cc2)cc1OC | > 12.5 µM | 1.33 µM | > 100 µM
COc1ccccc1CNC(=O)CCn1c(=O)[nH]c2ccccc2c1=O | 0.537 µM | 0.133 µM | > 10 µM
COc1cc(C(=O)OCCC2CCC[N+]3(C)CCCCC23)cc(OC)c1OC (stereo not drawn) | > 12.5 µM | 1.34 µM | > 100 µM

Compound | EC50 [1] | EC50 [2] | CC50 [3]
CC(=O)N1CCOC1C(C)(C)CC=C(C)CCC=C(C)C (stereo not drawn) | 2.04 µM | 1.34 µM | > 100 µM
CCNC(=O)C1CCN(c2cccc3c2C(=O)N(C2CCCCCCC2)C3=O)CC1 | 1.75 µM | 1.31 µM | > 100 µM
CSc1ccc(/C=C/C(=O)NC(=O)c2ccccc2O)cc1 | 0.127 µM | 0.131 µM | > 10 µM
Oc1ccc(-c2ccccc2)cc1CN1CCCCC1 | 1.08 µM | 0.132 µM | > 10 µM
CCOC(=O)c1c(-c2ccccc2)oc2c1C(=O)c1ccccc1C2=O | 1.13 µM | 1.35 µM | > 100 µM
Cc1noc(-c2ccc(O)cc2O)c1-c1ccc2c(c1)OCCO2 | 0.248 µM | 0.204 µM | 15.2 µM
O=C(Nc1ccc(Cl)cc1)N1CCN(c2ccc3nncn3n2)CC1 | 2.06 µM | 1.38 µM | > 100 µM
Oc1c2c(nc3cc(-c4ccc(Br)cc4)nn13)CCCC2 | 0.522 µM | 1.3 µM | > 100 µM
COc1ccc(-c2noc(CC(=O)Nc3ccccc3C#N)n2)cc1 | 6.08 µM | 1.38 µM | > 100 µM
CC(C)OC(=O)CSc1nnc(CNc2nc(-c3ccccc3)cs2)n1C | 1.39 µM | 1.38 µM | > 100 µM
COC(=O)CC(NC(=O)c1ccc(C)cc1)c1ccc2c(c1)OCO2 (stereo not drawn) | > 1.68 µM | 0.206 µM | 15 µM
COC(=O)[C@@H]1C[C@@H](NC(=O)c2ccc(C)cc2)CN1Cc1ccc(OC)c(C)c1OC | 0.565 µM | 0.137 µM | > 10 µM
COc1cccc2c1OCC(CN1CCC(C(=O)Nc3ccc(-n4cccn4)cc3)CC1)=C2 | 0.817 µM | > 1.36 µM | > 100 µM
Cc1cccc(C)c1OCC(=O)Nc1ccccc1O | 0.742 µM | 1.36 µM | > 100 µM
O=S(=O)(Nc1ccc(F)cc1)N1CCCCCC1 | > 12.5 µM | 1.36 µM | > 100 µM
COc1cccc(NC(=O)c2ccc(NCCCC3CCCCCC3)c([N+](=O)[O-])c2)c1 | 0.226 µM | 0.391 µM | 28.8 µM
CCCCN(CCCC)CCCNc1ncnc2c1[nH]c1ccc(C)cc12 | 0.148 µM | 0.1 µM | 7.41 µM
COC(=O)[C@@H]1C[C@@H](NC(=O)c2ccc(OC)cc2OC)CN1Cc1cc(C)ccc1C | 1.07 µM | 1.32 µM | > 100 µM
NC(=NOC(=O)c1ccccc1I)c1ccccn1 | 6.03 µM | 0.831 µM | 63 µM

Compound | EC50 [1] | EC50 [2] | CC50 [3]
CCN(c1ccc(OC)cc1)S(=O)(=O)c1ccc(C)cc1 | > 12.5 µM | 1.37 µM | > 100 µM
COC(=O)c1c(NC(=O)c2c(-c3ccccc3)noc2C)sc2c1CCC2 | 2.98 µM | 1.33 µM | > 100 µM
CCCc1c(C)nc2ccc(Br)cc2c1O | 1.51 µM | 1.34 µM | > 100 µM
N#CCSc1ncccc1C(=O)NCCc1ccc(Oc2ccccc2)cc1 | 1.63 µM | > 0.13 µM | > 10 µM
CN(C)/C=C1\Oc2ccccc2N=C1Cl | 0.153 µM | 0.132 µM | > 10 µM
c1ccc(-c2nn(-c3ccccc3)[n+](-c3cccc4ccccc34)n2)cc1 | > 0.417 µM | 0.131 µM | > 10 µM
O=C(Nc1ccc(Cl)cc1Cl)c1ccc(-c2nc(-c3ccccc3Cl)cs2)cc1 | 0.15 µM | 0.106 µM | > 7.93 µM
CC(C)N1CCCc2cc(CN3CCC(n4cc(C(=O)NCCCO)nn4)CC3)ccc21 | > 1.25 µM | 0.134 µM | > 10 µM
COc1ccccc1N1C(=N)S/C(=C/c2ccc(N(C)C)cc2)C1=O | 0.119 µM | 0.136 µM | > 10 µM
CCOc1ccc2[nH]c3c(NCCN(C)C)ncnc3c2c1 | 0.773 µM | 0.437 µM | 32.5 µM
Cc1ccc(COc2ccc3c(C#N)c4ccccn4c3c2)cc1 | 2.09 µM | 1.37 µM | > 100 µM
Cc1ccc(C2CC(=O)N3CN(c4ccc(Br)cc4)CSC3=C2C#N)o1 (stereo not drawn) | > 12.5 µM | 1.35 µM | > 100 µM
CC(C)(C)CC(C)(C)Nc1c(-c2ccccc2OC(=O)c2cccc(C(F)(F)F)c2)nc2ccccn12 | 0.957 µM | 0.134 µM | > 10 µM
CC(=O)c1ccc(OCc2cc(C(=O)N3CCCCC3c3cccnc3)no2)cc1 (stereo not drawn) | 4.21 µM | 1.37 µM | > 100 µM
CC(=O)Nc1ccc(S(=O)(=O)N(C)CC(=O)NN=Cc2ccncc2)cc1 | > 5.76 µM | 1.36 µM | > 100 µM
Oc1cccc2ccc[n+](CC(O)Cn3c4ccccc4c4ccccc43)c12 (stereo not drawn) | 0.199 µM | 0.651 µM | 49.2 µM
CCOC(=O)c1ccc(OCC2c3cc(OC)c(OC)cc3CCN2C(=O)c2ccc([N+](=O)[O-])cc2)cc1 (stereo not drawn) | > 12.5 µM | 1.35 µM | > 100 µM
O=C(CNCCc1ccccc1)NC(c1ccccc1)c1ccccc1 | 5.96 µM | 0.623 µM | 45.4 µM
